The record followed here is the NIST ThermoML archive (doi:10.1016/j.fluid.2012.06.017).

± gives the expanded uncertainty stated by the source.

For the series the following is noted: Liquid; Pulse-heating method.
With `CC(C)O[Si](OC(C)C)(OC(C)C)OC(C)C` [isopropyl silicate ((C3H7O)4Si)], the Critical pressure is reported as 1310 ± 80 kPa and the Critical temperature is 587 ± 12 K.
The matching figures for `CC(C)(C)[O-].CC(C)(C)[O-].CC(C)(C)[O-].CC(C)(C)[O-].[Ti+4]` [titanium(IV) 2-methylpropan-2-olate]: 1070 ± 60 kPa and 657 ± 14 K.
The like results for `CC(C)[O-].CC(C)[O-].CC(C)[O-].CC(C)[O-].[Ti+4]` [titanium(IV) 2-propanolate] were, in that order, 1140 ± 60 kPa and 641 ± 12 K.
